Assay results reported in US20260034094A1, “COMPOSITIONS AND METHODS FOR INDUCING FERROPTOSIS” (Kojin Therapeutics, Inc., priority 2022, published 2026).
“And” between values parts separate entries of the source, which are not always exact repeats. Equal entries are not always repeated. Where two headings read alike, the source gives them in different places.

Assays:
human recombinant GCL = human recombinant GCL (Homo sapiens (Human), UniProt P48506); assay: GCL enzyme profiling assay (ADP-Glo luminescence); assay type: biochemical
Protocol: The GCL enzyme assay was run in 50 mM HEPES, pH 7.5, containing 150 mM NaCl, 30 mM MgCl2, 0.5 mM EDTA, 1 mM DTT, 0.1 mg/mL BSA, and 0.02% or in the present case 0.2% F-127 in a total assay volume of 10 μL or 10 mL. Compound in pure DMSO was stamped in assay plates (Greiner black 384-well) or appropriate containers using a D300e digital dispenser (TECAN) and the final DMSO concentration was normalized to 1%. A 5 mL, or in the present case, 5 μL mixture of human recombinant GCL (final concentration: 5 nM) and ATP (final concentration: 0.6 mM) was added and the solution was incubated at room temperature (22° C.) for 1 h. The GCL enzyme reaction was initiated by addition of a 5 μL mixture of mono g-glutamate or in the present example, monosodium glutamate (final concentration: 1 mM) and a-aminobutyrate or α-aminobutyrate (final concentration: 1.2 mM). The reaction was stopped after 1 h or in the present case, 2 h by addition of 5 mL, or in the present case, 5 μL ADP GLO Reagent (Promega). The resulting solution was incubated for 2 h at room temperature. This was then followed by addition of 5 mL, or in the present case, 5 μL ADP GLO Detection. After incubation at room temperature for 30 min, the plates were read on a plate reader (PheraStar) using a luminescence protocol to quantify the GCL enzyme activity from each reaction solution. The data was analyzed using a four-parameter logistic equation to calculate IC50.

RKN cells = assay: RKN cell profiling assay (cell viability, CellTiter-Glo); assay type: cell-based; conditions: read-out: Cell Killing EC50
Protocol: RKN cells were suspended in assay medium (F-12 medium supplemented with 10% FBS and penicillin/streptomycin) and seeded at 1,000 cells per well (30 μL total volume) in opaque white 384-well plates (Corning). Cells were allowed to adhere for 24 h at 37° C. (95% humidity, 5% CO2) and then exposed to compounds disclosed herein for 72 h, or in the present case, 96 h. DMSO stock solutions of compounds were added to cells using a D300e Digital Dispenser (Tecan). The final DMSO concentration in each well was normalized to 0.5% (v/v) after compound treatment. Cell viability was measured using CellTiter-Glo (Promega). After incubation for 15 min at room temperature, luminescence was measured using a PHERAstar FSX microplate reader (BMG Labtech). Ferroptosis rescue experiments were performed as described previously using cells treated with ferrostatin-1 (fer-1, 1.5 μM) when seeding assay plates. Dose-response data were analyzed to determine EC50 values with GraphPad Prism 9 software using a four-parameter logistic equation or CDD Vault (Collaborative Drug Discovery) using the Levenberg-Marquardt algorithm.

[1] = human recombinant GCL, ADP-Glo, read-out: GCL IC50
[2] = human recombinant GCL 5 nM, 1 h preincubation with ATP, read-out: GCL IC50

human recombinant GCL, sequence (P48506 whole entry): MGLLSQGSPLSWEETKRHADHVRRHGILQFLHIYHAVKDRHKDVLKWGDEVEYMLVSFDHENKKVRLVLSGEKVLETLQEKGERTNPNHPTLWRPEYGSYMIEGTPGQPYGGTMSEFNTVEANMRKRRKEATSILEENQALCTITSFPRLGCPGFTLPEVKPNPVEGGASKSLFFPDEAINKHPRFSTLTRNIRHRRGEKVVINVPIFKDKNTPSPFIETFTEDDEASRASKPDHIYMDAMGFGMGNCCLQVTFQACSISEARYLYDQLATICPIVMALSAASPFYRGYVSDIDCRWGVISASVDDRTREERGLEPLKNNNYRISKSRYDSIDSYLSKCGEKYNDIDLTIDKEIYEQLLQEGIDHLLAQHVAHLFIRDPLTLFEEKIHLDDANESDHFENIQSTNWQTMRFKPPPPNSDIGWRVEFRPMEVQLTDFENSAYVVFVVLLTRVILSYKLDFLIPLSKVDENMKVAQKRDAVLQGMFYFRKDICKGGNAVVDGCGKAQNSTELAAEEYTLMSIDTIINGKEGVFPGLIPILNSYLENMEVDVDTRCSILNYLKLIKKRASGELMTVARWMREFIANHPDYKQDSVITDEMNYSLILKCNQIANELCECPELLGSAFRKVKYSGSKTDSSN

SMILES	EC50 (RKN cells; cell viability) [µM]	further results
N=S(=O)(CC[C@H](N)C(=O)O)CCC1(O)CCCCC1 (some centres unmarked) [Compound 297]	≥ 1000	IC50 (human recombinant GCL; [1]): 0.02 to 2 mM
N=S(=O)(CCC(c1ccccc1Cl)C(F)(F)F)CC[C@H](N)C(=O)O (some centres unmarked) [Compound 309]	< 1000	IC50 (human recombinant GCL; [1]): ≤ 0.02 mM
N=S(=O)(CCc1ccncc1)CC[C@H](N)C(=O)O (some centres unmarked) [Compound 6]	–	IC50 (human recombinant GCL; [2]): > 2 mM and 0.02 to 2 mM; IC50 (human recombinant GCL; human recombinant GCL 5 nM, 1 h preincubation with ATP, read-out: GCL IC50 (mM), individual values in parentheses): 2.27 mM and > 1.62 mM; EC50 (RKN cells; 96 h, 96 h exposure): ≥ 1000 µM
CC(C)(C)CCS(=N)(=O)CC[C@H](N)C(=O)NCc1cncs1 (some centres unmarked) [Compound 124]	–	IC50 (human recombinant GCL; [2]): > 2 mM; EC50 (RKN cells; 96 h, 96 h exposure): < 1000 µM
N=[S@SP2](=O)(CCC(N)C(=O)O)CCC(c1ccc(-c2ccccc2)cc1)(C(F)(F)F)C(F)(F)F (centres unmarked) [compound 509]	≥ 1000	IC50 (human recombinant GCL; [1]): ≤ 0.02 mM
N=S(=O)(CC[C@H](N)C(=O)O)CCC(O)(c1ccc(-c2ccc(O)c(F)c2)cc1)C(F)(F)F (some centres unmarked) [Compound 453]	≥ 1000	IC50 (human recombinant GCL; [1]): ≤ 0.02 mM
CCC(CC(F)(F)F)CS(=N)(=O)CC[C@H](N)C(=O)O (some centres unmarked) [Compound 172]	–	IC50 (human recombinant GCL; [2]): 0.02 to 2 mM; EC50 (RKN cells; 96 h, 96 h exposure): ≥ 1000 µM
Cc1c(F)cccc1CCS(=N)(=O)CC[C@H](N)C(=O)O (some centres unmarked) [Compound 26]	–	IC50 (human recombinant GCL; [2]): ≤ 0.02 mM; EC50 (RKN cells; 96 h, 96 h exposure): < 1000 µM
CC(C)(C)CCS(=N)(=O)CC[C@H](N)C(=O)NCCC(C)(C)O (some centres unmarked) [Compound 125]	–	IC50 (human recombinant GCL; [2]): > 2 mM; EC50 (RKN cells; 96 h, 96 h exposure): < 1000 µM
N[C@@H](CCS(=O)(=O)NCC(O)(c1ccc(-c2ccccc2)cn1)C(F)(F)F)C(=O)O (stereo partly drawn) [Compound 514, (2S)-2-amino-4-(N-(3,3,3-trifluoro-2-hydroxy-2-(5-phenylpyridin-2-yl)propyl)sulfamoyl)butanoic acid]	≥ 1000	IC50 (human recombinant GCL; [1]): 0.02 to 2 mM
CCCC(C)(C)OC(=O)[C@@H](N)CCS(=N)(=O)CCC(C)(C)C (some centres unmarked) [Compound 99]	–	IC50 (human recombinant GCL; [2]): > 2 mM; EC50 (RKN cells; 96 h, 96 h exposure): < 1000 µM
CCOC(=O)[C@@H](N)CC[S@@](=N)(=O)CC[C@](O)(c1ccccc1)C(F)(F)F [Compound 488, ethyl (S)-2-amino-4-((R,3S)-4,4,4-trifluoro-3-hydroxy-3-phenylbutylsulfonimidoyl)butanoate]	< 1000	IC50 (human recombinant GCL; [1]): 0.02 to 2 mM
N#Cc1ccccc1CCS(=N)(=O)CC[C@H](N)C(=O)O (some centres unmarked) [Compound 30]	–	IC50 (human recombinant GCL; [2]): ≤ 0.02 mM; EC50 (RKN cells; 96 h, 96 h exposure): ≥ 1000 µM
CCCCOC(=O)[C@@H](N)CCS(=N)(=O)CCc1ccccc1C(F)(F)F (some centres unmarked) [Compound 94]	–	IC50 (human recombinant GCL; [2]): 0.02 to 2 mM; EC50 (RKN cells; 96 h, 96 h exposure): < 1000 µM
N=[S@@](=O)(CC[C@H](N)C(=O)O)CC[C@@](O)(c1ccccc1)C(F)(F)F [Compound 347, (S)-2-amino-4-((R,3R)-4,4,4-trifluoro-3-hydroxy-3-phenylbutylsulfonimidoyl)butanoic acid]	< 1000	IC50 (human recombinant GCL; [1]): ≤ 0.02 mM
Cc1ccccc1OCCS(=N)(=O)CC[C@H](N)C(=O)O (some centres unmarked) [Compound 14]	–	IC50 (human recombinant GCL; [2]): 0.02 to 2 mM
CC(COC(=O)c1ccccc1)OC(=O)[C@@H](N)CCS(=N)(=O)CCC(C)(C)C (some centres unmarked) [Compound 98]	–	IC50 (human recombinant GCL; [2]): 0.02 to 2 mM
N=S(=O)(CCCc1cn[nH]c1)CC[C@H](N)C(=O)O (stereo partly drawn) [Compound 50, (2S)-4-(3-(1H-pyrazol-4-yl)propylsulfonimidoyl)-2-aminobutanoic acid]	–	IC50 (human recombinant GCL; [2]): 0.02 to 2 mM
N=S(=O)(CCC(c1ccc(-c2cnc(N)nc2)cc1)C(F)(F)F)CC[C@H](N)C(=O)O (some centres unmarked) [Compound 251]	≥ 1000	–
N=S(=O)(CCC1CCO1)CC[C@H](N)C(=O)O (some centres unmarked) [Compound 304]	–	IC50 (human recombinant GCL; [1]): 0.02 to 2 mM
N=S(=O)(CC[C@H](N)C(=O)O)CCn1ccnc1 (some centres unmarked) [Compound 7]	–	IC50 (human recombinant GCL; [2]): > 2 mM
COc1ccc(-c2ccc(C(CCS(=N)(=O)CC[C@H](N)C(=O)O)C(F)(F)F)cc2)c(Cl)c1 (some centres unmarked) [Compound 268]	< 1000	–
N=S(=O)(CCC(c1ccc(-c2ccccc2)cc1Cl)C(F)(F)F)CC[C@H](N)C(=O)O (some centres unmarked) [Compound 315]	≥ 1000	–
N=S(=O)(CCC(c1ccc(-c2ccccc2F)cc1)C(F)(F)F)CC[C@H](N)C(=O)O (some centres unmarked) [Compound 217]	< 1000	–
N=S(=O)(CCC(c1ccc(-c2cnc3[nH]ccc3c2)cc1)C(F)(F)F)CC[C@H](N)C(=O)O (some centres unmarked) [Compound 253]	< 1000	–
N=S(=O)(CC[C@H](N)C(=O)O)CCC(O)([C@H]1CC[C@@H](c2ccc(Cl)cc2Cl)CC1)C(F)(F)F (some centres unmarked) [Compound 341]	< 1000	–
Cn1ncc(-c2ccc(C(O)(CCS(=N)(=O)CC[C@H](N)C(=O)O)C(F)(F)F)cc2)cc1=O (some centres unmarked) [Compound 433]	≥ 1000	–
N=S(=O)(CCC(c1ccc(Oc2ccc(Cl)cc2Cl)cc1)C(F)(F)F)CC[C@H](N)C(=O)O (some centres unmarked) [Compound 318]	< 1000	–

SMILES	EC50 (RKN cells; cell viability) [µM]	further results
N=S(=O)(CCC(c1ccc(-c2ccc(Cl)s2)cc1)C(F)(F)F)CC[C@H](N)C(=O)O (some centres unmarked) [Compound 256]	< 1000	–
N=S(=O)(CCC(c1ccc(-c2ccc(C(N)=O)nc2)cc1)C(F)(F)F)CC[C@H](N)C(=O)O (some centres unmarked) [Compound 245]	≥ 1000	–
Cc1ccc(-c2ccc(C(O)(CCS(=N)(=O)CC[C@H](N)C(=O)O)C(F)(F)F)cc2)c(F)c1 (some centres unmarked) [Compound 437]	< 1000	–
CC(C)(C)CCS(=N)(=O)CC[C@H](N)C(=O)Nc1nccs1 (some centres unmarked) [Compound 121]	–	EC50 (RKN cells; 96 h, 96 h exposure): ≥ 1000 µM
N=S(=O)(CCc1cccc(Cl)c1F)CC[C@H](N)C(=O)O (some centres unmarked) [Compound 28]	–	EC50 (RKN cells; 96 h, 96 h exposure): ≥ 1000 µM
N[C@@H](CCS(=O)(=O)CCC(O)(c1ncc(-c2ccc(Cl)cc2Cl)cn1)C(F)(F)F)C(=O)O (some centres unmarked) [Compound 470]	≥ 1000	–
Cn1cc(-c2ccc(C(O)(CCS(=N)(=O)CC[C@H](N)C(=O)O)C(F)(F)F)nc2)cn1 (some centres unmarked) [Compound 472]	≥ 1000	–
N=S(=O)(CCC(c1ccc(-c2ccccc2Cl)cc1)C(F)(F)F)CC[C@H](N)C(=O)O (some centres unmarked) [Compound 221]	< 1000	–
N=S(=O)(CCC(c1ccc(C2CC2)cc1)C(F)(F)F)CC[C@H](N)C(=O)O (some centres unmarked) [Compound 225]	< 1000	–
N=[S@](=O)(CC[C@H](N)C(=O)O)CCC(O)(c1ccccc1)C(F)(F)F (single isomer, unassigned) [Compound 346]	≥ 1000	–
CC(C)(O)c1cccc(-c2ccc(C(CCS(=N)(=O)CC[C@H](N)C(=O)O)C(F)(F)F)cc2)c1 (some centres unmarked) [Compound 241]	≥ 1000	–
Cc1ccc(-c2cccc(C(CCS(=N)(=O)CC[C@H](N)C(=O)O)C(F)(F)F)c2)c(F)c1 (some centres unmarked) [Compound 284]	≥ 1000	–
Cc1cc(Cl)ccc1-c1ccc(C(CCS(=N)(=O)CC[C@H](N)C(=O)O)C(F)(F)F)cc1 (some centres unmarked) [Compound 275]	< 1000	–
N=S(=O)(CCC(c1cccc(-c2ccc(Cl)cc2Cl)c1)C(F)(F)F)CC[C@H](N)C(=O)O (some centres unmarked) [Compound 288]	≥ 1000	–
N=S(=O)(CC[C@H](N)C(=O)O)CCC(O)(c1ccc(OC2CCCCC2)cc1)C(F)(F)F (some centres unmarked) [Compound 339]	< 1000	–
Cc1cc(Cl)ccc1-c1cnc(C(O)(CCS(=N)(=O)CC[C@H](N)C(=O)O)C(F)(F)F)nc1 (some centres unmarked) [Compound 474]	< 1000	–
C#CCNC(=O)[C@@H](N)CCS(=N)(=O)CCCC (some centres unmarked) [compound 493]	–	IC50 (human recombinant GCL; [1]): > 2 mM
Cc1cc(F)ccc1-c1ccc(C(CCS(=N)(=O)CC[C@H](N)C(=O)O)C(F)(F)F)cc1 (some centres unmarked) [Compound 278]	< 1000	–
N=S(=O)(CCC(c1ccc(-c2cnc3[nH]ncc3c2)cc1)C(F)(F)F)CC[C@H](N)C(=O)O (some centres unmarked) [Compound 254]	≥ 1000	–
CC(C)c1ccccc1-c1ccc(C(CCS(=N)(=O)CC[C@H](N)C(=O)O)C(F)(F)F)cc1 (some centres unmarked) [Compound 266]	< 1000	–
N=S(=O)(CC[C@H](N)C(=O)O)CCC(O)(c1ccn(-c2ccc(Cl)cc2Cl)n1)C(F)(F)F (some centres unmarked) [Compound 336]	≥ 1000	–
N=S(=O)(CCC(c1ccc(-c2ccccc2Cl)cc1)C(F)(F)F)CC[C@H](N)C(=O)O (some centres unmarked) [Compound 220]	< 1000	–
C=C(c1ccc(C(CCS(=N)(=O)CC[C@H](N)C(=O)O)C(F)(F)F)cc1)C(F)(F)F (some centres unmarked) [Compound 260]	≥ 1000	–
N=S(=O)(CCC(c1ccc(-c2ccc(Cl)cc2O)cc1)C(F)(F)F)CC[C@H](N)C(=O)O (some centres unmarked) [Compound 282]	< 1000	–
N=S(=O)(CC[C@H](N)C(=O)O)CCC(O)(c1ccc(-c2ccco2)cn1)C(F)(F)F (some centres unmarked) [Compound 481]	< 1000	–
CCCCS(=N)(=O)CC[C@H](N)c1nnn[nH]1 (stereo partly drawn) [Compound 200, (1S)-3-(butylsulfonimidoyl)-1-(1H-tetrazol-5-yl)propan-1-amine]	–	EC50 (RKN cells; 96 h, 96 h exposure): ≥ 1000 µM
Cc1ccc(-c2cccc(C(CCS(=N)(=O)CC[C@H](N)C(=O)O)C(F)(F)F)c2)cc1 (some centres unmarked) [Compound 285]	≥ 1000	–
